Experiment [1] relates to clinical isolates of MRSA and MSSA, Staphylococcus aureus ATCC 43300 and ATCC 29213. Format: cell-based. Particulars: for MIC of the antibiotic alone: before combination with FS-1.
The subject of experiment [2] is human immunodeficiency virus HIV-1 (LAI). Format: cell-based.
The test system is the same in experiment [3]. Format: cell-based. As to conditions: 0.01 mg/ml.
Experiment [4] relates to influenza virus strain A/FPV/Rostock/34. Also on record: species or system chickens. Particulars: in vivo.

The values below come from patent US10149890B2 (priority 2010, dated 2018).

“And” between values parts separate entries of the source, which are not always exact repeats. Equal entries are not always repeated.

In the case of `CCC[C@@H]1C[C@@H](C(=O)N[C@@H]([C@H]2O[C@H](SC)[C@H](O)[C@@H](O)[C@H]2O)[C@@H](C)O)N(C)C1` [lincomycin], in experiment [1], the “MIC of the antibiotic in combination with FS-1” value (“MIC … with FS-1” below) stood at 8 µg/mL and the “MIC of the antibiotic alone” value turned out to be 64 µg/mL.

As to `Cc1cn([C@H]2C[C@H](N=[N+]=[N-])[C@@H](CO)O2)c(=O)[nH]c1=O` [azidothymidine], the “Extinction factor (p24)” value in experiment [2] (0.01 mg/ml) was determined as 0.0446 ± 0.003187. In addition, the “Decrease of p24 protein compared to placebo” value in experiment [2] (FS-1 0.188 and 0.094 mg/ml, azidothymidine 0.01 mg/ml) was 60 times. In experiment [3], the “Decrease of reverse transcriptase content compared with negative control” value is 5 times and the “Extinction factor (reverse transcriptase)” value is 0.5724 ± 0.005464.

For `CC(N)C12CC3CC(CC(C3)C1)C2` (stereo not shown) [Rimantadine], in experiment [4], the “Number of chickens that died” value is 10 and 8; the “Number of survived chickens” value was 4 and 6; the Survival % was 28.6 ± 12.53% and 42.9 ± 13.73%.

Regarding `Cc1onc(-c2ccccc2)c1C(=O)N[C@@H]1C(=O)N2[C@@H]1SC(C)(C)[C@@H]2C(=O)O` [oxacillin], in experiment [1], the “MIC … with FS-1” value is 64 µg/mL and the “MIC of the antibiotic alone” value amounted to 256 µg/mL.

On to `Cn1nnnc1SCC1=C(C(=O)O)N2C(=O)[C@@H](NC(=O)[C@H](O)c3ccccc3)[C@H]2SC1` [cefamandole], for which, in experiment [1], the “MIC … with FS-1” value was determined as 8 µg/mL and the “MIC of the antibiotic alone” value stood at 64 µg/mL.
